The numbers were not newly measured in patent US20220296715A1, “METHOD FOR PREVENTING PRECIPITATION OF INJECTABLE SOLUTION CONTAINING p-BORONOPHENYLALANINE” (Stella Pharma Corporation, priority 2019, published 2022), which cites them from elsewhere.

For the data set the following is noted: physiological pH.

For `N[C@@H](Cc1ccc(B(O)O)cc1)C(=O)O` [p-Boronophenylalanine, p-boronophenylalanine], the solubility entry is “very poor solubility”.
